Experimental findings from patent US5912258A, “Thiadiazoleamide derivative and anti-ulcer drug” (Shiseido Co., Ltd., priority 1998, dated 1999) are described below.

Test [1] has as its system isolated gastric fundic gland. The experiment in a line: CAP: Acid Secretion Inhibition Test in vitro ([^14 C]-aminopyrine uptake). The test is classed as cell-based, male Japanese White rabbit. The note with it: Oryctolagus cuniculus, rabbit isolated gastric fundic gland, 10^-5 M, histamine 10^-5 M; read-out: CAP: Acid secretion inhibitory rate. As for the experimental part: CAP: Acid Secretion Inhibition Test in vitro (i) Meaning The acid secretion inhibitory activity in a cell level is studied. It can also be used for studying the mechanism of the effect. (ii) Method (ii)-(a) Preparation of isolated gastric gland suspension First, an isolated gastric fundic gland sample was prepared. Namely, a male Japanese White rabbit (2.5 to 3 kg) was anesthetized to death with Nembutal™ and then the abdomen was incised. Immediately thereafter, the stomach was removed and, after its pyloric and cardiac antrum were severed, incised along its greater curvature into two sheets. The gastric contents adhering to the mucosal surface was washed out with ice-cooled PBS (-) and then carefully washed therein. The gastric wall was spread on a cork board with its mucosal surface facing up and the feed and mucus thereon were completely removed with sterile gauze. The mucosa was separated therefrom by a spatula and then collected in ice-cooled PBS (-). After being washed twice with PBS (-), the mucosa was minced into 2-3 mm^3 pieces by scissors. These pieces were further washed twice with a nutrient solution. The nutrient solution comprises 132.4 mM of NaCl, 5.4 mM of KCl, 5 mM of Na2 HPO4 ·12H2 O, 1 mM of NaH2 PO4 ·2H2 O, 1.2 mM of MgSO4, 1 mM of CaCl2, 25 mM of HEPES, 2 mg/ml of glucose, and 1 mg/ml of BSA. Into 70 ml of the nutrient solution containing 1 mg/ml of collagenase, minced mucosal pieces were dispersed and intensely stirred in a conical flask with a stirrer at 37° C. for 40 to 60 minutes. […] The nutrient solution was added to the reaction solution so as to attain the total amount of about 200 ml. After being filtered through a mesh, the suspension was divisionally introduced into 50 ml centrifuge tubes and left for 15 minutes such that gastric fundic gland was deposited. The supernatant was repeatedly removed by an aspirator, dispersed in the nutrient solution, and then left such that the gastric fundic gland was washed three times. At this time, without using a pipette, the suspension was alternately introduced into two centrifuge tubes so as to effect dispersion. The number of cells was counted under microscope and adjusted to 1.6×10^6 cells/ml. (ii)-(b) [^14 C]-aminopyrine uptake test Then [^14 C]-aminopyrine uptake test was performed. After an Eppendorf tube was weighed, 10 μl (final concentration: 10^-5 M) of histamine dissolved in the above-mentioned nutrient solution, 10 μl (final concentration: 10 ^-5 M) of the test compound dissolved in DMSO, and 10 μl (final concentration: 0.05 μCi/ml) of [^14 C]-aminopyrine diluted with the nutrient solution were introduced therein and then 970 μl of the isolated gastric fundic gland suspension prepared above were added thereto. Subsequently, this mixture was shaken at 37° C. for 40 minutes at 125 cycles/minute. After being centrifuged for 30 minutes 200 μl of its supernatant was collected into a mini-vial, while the rest was removed by an aspirator. The gland pellet was completely dried as the tube with its lid being opened was kept for one night in a drying oven at 80° C. and then the weight was determined at room temperature. Then 100 μl of 1N KOH was added thereto an the tube with its lid being closed was treated at 60° C. for 1 to 2 hours so as to dissolve the pellet. Then, the contents thereof were transferred to a mini-vial. Into the mini-vial containing the supernatant or gland pellet, 4 ml of Atomlite™ was added and then the radioactivity was measured by a liquid scintillation counter. Here, after the radioactivity of the gland pellet was corrected by using a sample in which 20 mM of NaSCN was added so as to cancel the hydrogen ion concentration gradient, the integration ratio of aminopyrine specifically trapped by the gland pellet was calculated. This experiment was performed in duplicate. (ii)-(c) Calculation of the accumulation rate of aminopyrine Here, its principle will be briefly explained. […]

For the next test, the system named is stress ulcer formation. The experiment in a line: WIS: Restraint and Water Immersion Stress-Induced Ulcer Inhibition Test. The test is classed as in vivo, Male Crj:SD or Slc:SD rats. The note with it: rat, 100 mg/kg orally, 7 hours water immersion stress. As for the experimental part:
WIS: Restraint and Water Immersion Stress-Induced Ulcer Inhibition Test (i) Meaning The degree of inhibition of the stress ulcer formation is tested. (ii) Method Male Crj:SD or Slc:SD rats (6 to 7-weeek-old) were fasted overnight, but allowed free access to water. Each group has 5 to 8 of these rats. The sample compound was dissolved or suspended in an aqueous solution of 0.3% sodium carboxymethylcellulose or 0.05% Tween 80 and then was orally administered (100 mg/10 ml/kg). To a control group, the vehicle was administered. 10 minutes later, the rats were placed in a stress cage and immersed to the level of xiphoid process in a water bath (21° C.) for 7 hours. At the end of the stress, the rats were sacrificed by inhalation of ether or carbon dioxide. Then, the stomach of each was removed, inflated by injecting 10 ml of 5% formalin neutral buffer solution, and immersed in 1% formalin neutral buffer solution for 30 minutes or more to be fixed. The stomach was incised along the greater curvature and then the length of each erosion in the glandular portion was determined under dissecting microscope. The sum of the length of erosions per stomach was defined as ulcer index (UI). (iii) Judgment Standard […]

Regarding `CCN(CC)CCSc1nnc(NC(=O)c2ccc(C(C)C)cc2)s1` [Example 1, 2-(4-isopropylbenzoyl)amino-5-diethylaminoethylthio-1,3,4-thiadiazole], the inhibition at 10 µM in test [1] is 101%. Besides, the “WIS: ulcer formation inhibitory rate” value in the test with stress ulcer formation is 83%.

As for `CC(C)c1ccc(C(=O)Nc2nnc(SCCN(C(C)C)C(C)C)s2)cc1` [Example 2, 2-(4-isopropylbenzoyl)amino-5-diisopropylaminoethylthio-1,3,4-thiadiazole], in test [1], the inhibition at 10 µM is 100%. Also, the “WIS: ulcer formation inhibitory rate” value in the test with stress ulcer formation came out at 80%.

With `CCN(CC)CCSc1nnc(NC(=O)c2ccc(C(C)(C)C)cc2)s1` [Example 4, 2-(4-tert-butylbenzoyl)amino-5-diethylaminoethylthio-1,3,4-thiadiazole], the inhibition at 10 µM in test [1] is 100%. Besides, the “WIS: ulcer formation inhibitory rate” value with stress ulcer formation is recorded as 79%.

For the molecule `CCN(CC)CCSc1nnc(NC(=O)c2ccc(OC/C=C(\C)CCC=C(C)C)cc2)s1` [Example 10, 2-(4-geranyloxybenzoyl)amino-5-diethylaminoethylthio-1,3,4-thiadiazole], the inhibition at 10 µM in test [1] stood at 100%. In addition, the “WIS: ulcer formation inhibitory rate” value in the test with stress ulcer formation is on record as 48%.

Consider `CC(C)=CCC/C(C)=C/COc1ccc(C(=O)Nc2nnc(SCCN3CCCCC3)s2)cc1` [Example 12, 2-(4-geranyloxybenzoyl)amino-5-piperidinoethylthio-1,3,4-thiadiazole], for which, in test [1], the inhibition at 10 µM was determined as 99%. Moreover, the “WIS: ulcer formation inhibitory rate” value in the test on stress ulcer formation was found to be 44%.

As to `CC(C)=CCC/C(C)=C/COc1ccc(C(=O)Nc2nnc(SCc3ccccn3)s2)cc1` [Example 14, 2-(4-geranyloxybenzoyl)amino-5-(2-pyridylmethyl)thio-1,3,4-thiadiazole], the inhibition at 10 µM in test [1] is 45%. In addition, the “WIS: ulcer formation inhibitory rate” value in the test on stress ulcer formation was 30%.

With `CCSc1nnc(NC(=O)c2ccc(OC/C=C(\C)CCC=C(C)C)cc2)s1` [Example 15, 2-(4-geranyloxybenzoyl)amino-5-ethylthio-1,3,4-thiadiazole], in test [1], the inhibition at 10 µM stood at 17%. Further, the “WIS: ulcer formation inhibitory rate” value in the test with stress ulcer formation was 43%.
